These results are taken from paper PMC3177607 (Bioorganic & medicinal chemistry letters, 2008).

Usually EC50 stands for the concentration giving half of the maximal effect. The inhibition is the change of the read-out against control, counted positive when it falls.

The target in one assay is T1, M2 (Homo sapiens, UniProt P08172).
T1 sequence (P08172 1-466): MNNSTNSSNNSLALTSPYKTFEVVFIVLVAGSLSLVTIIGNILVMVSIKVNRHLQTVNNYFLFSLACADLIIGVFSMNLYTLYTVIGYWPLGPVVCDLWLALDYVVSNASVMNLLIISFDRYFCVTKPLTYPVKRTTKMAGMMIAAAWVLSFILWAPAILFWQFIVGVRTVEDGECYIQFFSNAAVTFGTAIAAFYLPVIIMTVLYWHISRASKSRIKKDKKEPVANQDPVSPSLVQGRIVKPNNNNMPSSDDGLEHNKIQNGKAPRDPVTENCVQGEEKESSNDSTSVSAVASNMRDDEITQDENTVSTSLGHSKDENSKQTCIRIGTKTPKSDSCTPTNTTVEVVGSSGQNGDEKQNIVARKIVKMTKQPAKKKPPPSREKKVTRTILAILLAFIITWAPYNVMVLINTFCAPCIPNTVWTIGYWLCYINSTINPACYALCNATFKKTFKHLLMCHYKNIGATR
As to the kind of experiment: M2 functional activation. It is filed as cell-based.

The target in another assay is M3 (Homo sapiens, UniProt P20309). As to the kind of experiment: M3 functional activation. It is filed as cell-based.
In the next assay the target is T2, M4 (Homo sapiens, UniProt P08173).
T2 sequence (P08173 1-479): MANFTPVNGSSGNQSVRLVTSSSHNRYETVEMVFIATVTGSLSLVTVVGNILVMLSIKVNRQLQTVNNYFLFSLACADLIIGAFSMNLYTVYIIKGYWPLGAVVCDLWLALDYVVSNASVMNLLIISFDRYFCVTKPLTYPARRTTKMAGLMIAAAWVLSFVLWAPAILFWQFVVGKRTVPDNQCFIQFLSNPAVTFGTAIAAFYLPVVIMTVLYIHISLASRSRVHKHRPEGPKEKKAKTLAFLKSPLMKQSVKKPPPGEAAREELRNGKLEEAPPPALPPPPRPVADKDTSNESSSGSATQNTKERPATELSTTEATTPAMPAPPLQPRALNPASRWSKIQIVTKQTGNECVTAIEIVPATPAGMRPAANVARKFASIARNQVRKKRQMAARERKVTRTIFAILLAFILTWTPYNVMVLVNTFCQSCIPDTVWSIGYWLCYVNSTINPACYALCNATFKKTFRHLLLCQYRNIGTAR
As to the kind of experiment: M4 functional activation. It is filed as cell-based.

For the next assay, the target named is T3, M5 (Homo sapiens, UniProt P08912).
T3 sequence (P08912 1-532): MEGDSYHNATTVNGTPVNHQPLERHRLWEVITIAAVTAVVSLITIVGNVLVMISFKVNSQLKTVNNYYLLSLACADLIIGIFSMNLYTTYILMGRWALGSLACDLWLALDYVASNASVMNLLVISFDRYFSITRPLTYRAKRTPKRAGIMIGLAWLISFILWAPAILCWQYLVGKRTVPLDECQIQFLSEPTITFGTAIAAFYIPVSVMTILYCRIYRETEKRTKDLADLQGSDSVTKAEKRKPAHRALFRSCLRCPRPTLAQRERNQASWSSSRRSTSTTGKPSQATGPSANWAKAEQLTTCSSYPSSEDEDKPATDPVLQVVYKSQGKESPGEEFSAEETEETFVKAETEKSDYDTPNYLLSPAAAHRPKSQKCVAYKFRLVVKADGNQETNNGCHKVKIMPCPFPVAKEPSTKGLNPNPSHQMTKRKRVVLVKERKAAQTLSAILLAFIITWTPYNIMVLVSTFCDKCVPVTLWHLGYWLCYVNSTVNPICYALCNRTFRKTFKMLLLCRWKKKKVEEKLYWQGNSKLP
As to the kind of experiment: M5 functional activation. It is filed as cell-based.

Assay [1] deals with T4, D2 (Homo sapiens, UniProt P14416). As to the kind of experiment: D2 inhibition. It is filed as cell-based.
A further assay concerns the target T5, M1 (Rattus norvegicus, UniProt P08482).
T5 sequence (P08482 1-460): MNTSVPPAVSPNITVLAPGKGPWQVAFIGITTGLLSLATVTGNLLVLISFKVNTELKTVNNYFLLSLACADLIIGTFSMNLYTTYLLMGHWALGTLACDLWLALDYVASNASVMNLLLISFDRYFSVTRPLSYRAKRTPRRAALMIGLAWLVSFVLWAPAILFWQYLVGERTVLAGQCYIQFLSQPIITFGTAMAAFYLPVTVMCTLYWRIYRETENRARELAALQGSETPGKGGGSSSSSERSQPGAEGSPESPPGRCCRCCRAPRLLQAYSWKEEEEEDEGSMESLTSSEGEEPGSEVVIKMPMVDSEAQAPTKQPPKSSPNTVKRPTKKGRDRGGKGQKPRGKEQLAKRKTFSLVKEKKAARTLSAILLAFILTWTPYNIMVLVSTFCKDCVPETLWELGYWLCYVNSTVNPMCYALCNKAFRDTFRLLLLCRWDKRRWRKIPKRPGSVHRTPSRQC
As to the kind of experiment: 10 μM single point M1 activation screen. It is filed as cell-based. Particulars: in triplicate, relative to ACh, CCh and TBPB controls.

Assay [2] deals with T4, D2. The note with it: cited from earlier work.

Where two headings read alike, the source gives them in different places.

T4 sequence (P14416 whole entry): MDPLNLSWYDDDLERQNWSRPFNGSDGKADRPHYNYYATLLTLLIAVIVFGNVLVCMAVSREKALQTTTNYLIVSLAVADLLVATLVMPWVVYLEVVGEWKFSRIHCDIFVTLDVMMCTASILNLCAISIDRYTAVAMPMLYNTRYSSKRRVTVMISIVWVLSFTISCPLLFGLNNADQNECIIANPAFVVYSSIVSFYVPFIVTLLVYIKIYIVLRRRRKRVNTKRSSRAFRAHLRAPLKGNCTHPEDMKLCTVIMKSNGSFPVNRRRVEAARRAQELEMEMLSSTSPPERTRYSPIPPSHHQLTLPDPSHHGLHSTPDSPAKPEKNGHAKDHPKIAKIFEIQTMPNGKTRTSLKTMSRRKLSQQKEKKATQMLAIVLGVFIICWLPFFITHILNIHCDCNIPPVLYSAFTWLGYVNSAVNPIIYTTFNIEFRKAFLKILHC
Chain of M3 (P20309 whole entry): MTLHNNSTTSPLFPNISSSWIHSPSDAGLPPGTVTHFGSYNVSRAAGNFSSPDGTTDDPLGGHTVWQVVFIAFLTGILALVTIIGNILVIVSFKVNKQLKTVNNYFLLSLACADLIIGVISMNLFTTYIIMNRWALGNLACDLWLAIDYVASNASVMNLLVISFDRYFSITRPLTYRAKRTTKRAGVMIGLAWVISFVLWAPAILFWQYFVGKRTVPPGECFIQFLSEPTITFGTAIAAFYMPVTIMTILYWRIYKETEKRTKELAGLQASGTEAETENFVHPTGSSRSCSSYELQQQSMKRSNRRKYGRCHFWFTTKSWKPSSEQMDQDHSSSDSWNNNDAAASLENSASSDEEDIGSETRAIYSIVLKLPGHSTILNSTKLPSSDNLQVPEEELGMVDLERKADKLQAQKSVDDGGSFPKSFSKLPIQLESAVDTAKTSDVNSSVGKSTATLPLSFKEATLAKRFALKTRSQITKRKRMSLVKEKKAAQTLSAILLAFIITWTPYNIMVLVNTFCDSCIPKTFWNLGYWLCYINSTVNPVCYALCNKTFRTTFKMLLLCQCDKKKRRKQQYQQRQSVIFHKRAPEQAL

Consider `O=c1[nH]c2ccccc2n1C1CCN(C2CCN(S(=O)(=O)c3ccccc3)CC2)CC1` [9c], for which the EC50 on M2, at M3, at M4 and on M5 was more than 30000 nM throughout. Moreover, the inhibition at 10 µM at D2 [1] (read-out: inhibition of D2) is approximately 10%. The “M1 activation, single point screen” value at M1 is given as “activated M1”.

Regarding `O=C(Nc1cccc(SC(F)(F)F)c1)N1CCC(N2CCC(n3c(=O)[nH]c4ccccc43)CC2)CC1` [10i], the “M1 activation, single point screen” value at M1 is “activated M1”.

In the case of `O=c1[nH]c2ccc(F)cc2n1C1CCN(C2CCN(S(=O)(=O)c3ccccc3)CC2)CC1` [14c], the “inhibition of D2” value against D2 [1] (at concentrations up to 10 μM) is on record as “did not inhibit”.

As for `O=c1[nH]c2ccccc2n1C1CCN(C2CCN(Cc3ccccc3C(F)(F)F)CC2)CC1` [compound 2], the D2 inhibitory activity entry at D2 [2] was “no D2 inhibitory activity”.

As for `CCOC(=O)N1CCC(N2CCC(n3c(=O)[nH]c4ccccc43)CC2)CC1` [ethyl carbamate congener], the “% CCh Max at M2” value on M2 was found to be 80.6%. The EC50 at M2 (read-out: M2 EC50) was determined as 11.9 nM; at M4 (read-out: M4 EC50) it was 9.1 nM; at M5 (read-out: M5 EC50), 34.3 nM. In addition, the “% CCh Max at M4” value at M4 is 96.9%. Also, the “% CCh Max at M5” value on M5 is reported as 50.8%.
